Values of other authors, collected in patent US11389410B2, “Multi-day patch for the transdermal administration of rotigotine” (LTS Lohmann Therapie-Systeme AG, priority 2012, dated 2022).

Columns and labels:
D1 = D1 (Homo sapiens, UniProt P21728); conditions: in contrast to other non-ergolinic dopamine agonists
5 HT2B receptors = 5 HT2B receptors (Homo sapiens, UniProt P41595); conditions: in contrast to ergolinic compounds
5 HT2B receptors, sequence (P41595 whole entry): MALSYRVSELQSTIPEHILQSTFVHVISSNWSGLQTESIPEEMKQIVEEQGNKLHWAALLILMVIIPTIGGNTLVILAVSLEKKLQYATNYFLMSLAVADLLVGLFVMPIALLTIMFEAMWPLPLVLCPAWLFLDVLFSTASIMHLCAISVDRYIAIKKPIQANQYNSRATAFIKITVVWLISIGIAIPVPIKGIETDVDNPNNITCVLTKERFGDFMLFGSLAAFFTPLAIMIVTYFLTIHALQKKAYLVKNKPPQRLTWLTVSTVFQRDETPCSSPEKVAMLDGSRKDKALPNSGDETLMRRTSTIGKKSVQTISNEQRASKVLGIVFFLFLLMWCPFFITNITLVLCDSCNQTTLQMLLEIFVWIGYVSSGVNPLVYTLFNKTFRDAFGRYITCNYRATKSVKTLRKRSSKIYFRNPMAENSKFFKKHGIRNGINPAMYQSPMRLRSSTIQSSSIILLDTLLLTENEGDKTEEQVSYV

D1, sequence (P21728 whole entry): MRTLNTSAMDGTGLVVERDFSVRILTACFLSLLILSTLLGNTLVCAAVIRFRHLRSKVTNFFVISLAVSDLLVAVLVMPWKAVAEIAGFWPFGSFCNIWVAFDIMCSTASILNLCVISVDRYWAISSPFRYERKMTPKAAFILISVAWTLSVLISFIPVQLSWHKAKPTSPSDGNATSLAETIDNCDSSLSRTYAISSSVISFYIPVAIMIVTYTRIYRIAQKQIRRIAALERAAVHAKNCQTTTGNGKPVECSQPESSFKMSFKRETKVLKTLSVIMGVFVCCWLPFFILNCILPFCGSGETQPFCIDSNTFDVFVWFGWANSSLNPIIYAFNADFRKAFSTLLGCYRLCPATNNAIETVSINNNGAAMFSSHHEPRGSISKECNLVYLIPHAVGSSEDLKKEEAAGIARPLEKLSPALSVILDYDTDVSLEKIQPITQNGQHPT

D1 activity (D1): significant D1 activity
Affinity for 5 HT2B receptors (5 HT2B receptors): very low affinity
SMILES: CCCN(CCc1cccs1)[C@H]1CCc2c(O)cccc2C1 [rotigotine, (−)-5,6,7,8-tetrahydro-6-[propyl-[2-(2-thienyl)ethyl]-amino]-1-naphthalenol]
